The values below are quoted from earlier work in patent US6224863A, “Antibiotic composition from alcaligenes species and method for making and using the same” (University of South Carolina, priority 1998, dated 2001).

One series has as its system Staphylococcus aureus. The settings on record: strains of Staphylococcus aureus.
The test system of another series is S. epidermidis. To be noted: strains of S. epidermidis.

On to `CCCCCc1cc(O)c2ccccc2n1` [2-n-pentylquinolinol], for which, in the series with Vibrio harveyi, the antibiotic activity result is recorded as “exhibits activity”.
In the case of `C=C(CC/C=C\C=C\CC(C)CC(=O)CC(O)CNC(=O)C(C)C(C)OC(N)=O)CC(C)C/C(C)=C/C(=O)O` (centres unmarked) [kalimantacin A], the antibacterial activity entry in the series on Staphylococcus aureus and in the series on S. epidermidis was “only effective” in each case.
Turning to `C=C(CC/C=C/C=C/CC(C)CC(=O)CC(O)CNC(=O)C(C)C(C)OC(N)=O)CC(C)C/C(C)=C/C(=O)O` (centres unmarked) [kalimantacin B], the antibacterial activity entry in the series on Staphylococcus aureus and in the series with S. epidermidis was “only effective” in each case.
As to `C=C(CC/C=C\C=C\CC(C)CC(=O)CC(O)CNC(=O)CC(C)OC(N)=O)CC(C)C/C(C)=C/C(=O)O` (centres unmarked) [kalimantacin C], the antibacterial activity entry with Staphylococcus aureus and in the series on S. epidermidis was “only effective” throughout.
On to `Brc1[nH]c(Br)c(Br)c1Br` [tetrabromopyrrole], for which, in the series on other marine bacteria, the antibiotic activity result is “effective against other marine bacteria”.
